Experimental data from US20060110767A1, “Genotyping assay to predict cytochrome P4503A5 exression” (priority 2001, published 2006).
Like-named read-outs stand apart in the source and are kept apart here.

Experiments:
CYP3A5 [1] = target: T1, CYP3A5 (Homo sapiens, UniProt P20815); conditions: cited from earlier work
CYP3A4 [2] = target: T2, CYP3A4 (Homo sapiens, UniProt P08684); conditions: cited from earlier work
CYP3A5 [3] = target: T1, CYP3A5; conditions: cited from earlier work; remark: listed apart in the source
CYP3A7 = CYP3A7 (Homo sapiens, UniProt P24462); conditions: cited from earlier work
Chain of CYP3A7 (P24462 whole entry): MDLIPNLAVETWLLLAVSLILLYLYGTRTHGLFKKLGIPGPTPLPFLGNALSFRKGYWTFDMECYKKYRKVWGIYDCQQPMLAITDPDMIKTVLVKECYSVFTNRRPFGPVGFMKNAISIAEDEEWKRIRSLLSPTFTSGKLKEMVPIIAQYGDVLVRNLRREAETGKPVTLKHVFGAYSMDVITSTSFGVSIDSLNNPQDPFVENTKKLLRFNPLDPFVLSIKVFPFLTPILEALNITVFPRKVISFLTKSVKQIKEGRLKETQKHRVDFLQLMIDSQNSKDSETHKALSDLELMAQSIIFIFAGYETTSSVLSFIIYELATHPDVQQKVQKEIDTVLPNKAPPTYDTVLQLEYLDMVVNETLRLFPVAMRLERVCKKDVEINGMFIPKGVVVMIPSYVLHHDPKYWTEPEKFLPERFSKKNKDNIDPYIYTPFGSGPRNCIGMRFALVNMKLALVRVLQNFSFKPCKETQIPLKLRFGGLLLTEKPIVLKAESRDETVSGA

CYP3A = conditions: cited from earlier work
CYP3A4 [4] = target: T2, CYP3A4; conditions: pH 7.4
Description: (§1) Midazolam, ^15N3-midazolam, 1′-OH MDZ and 4-OH MDZ were provided by Roche Laboratories. All incubations were performed in duplicate in solutions containing 0.1 M potassium phosphate (pH 7.4) and 20 to 100 μg human liver microsomes or 50 to 100 μg intestinal homogenates or 10 pmol of recombinant CYP3A4 or CYP3A5 (Gentest). Midazolam (final concentration, 8 μM) was added to the diluted tissue preparations, and the mixtures were preincubated at 37° C. for 5 min. We added NADPH (final concentration, 1 mM) to initiate the reaction. Incubation of human liver microsomes lasted for 2 min; incubation of recombinant CYP3A and intestinal samples lasted for 4 min. Reactions were terminated by the addition of 1 mL of ice-cold 0.1 M Na2CO3, pH ˜11. We used NCI GC-MS to measure the quantities of extracted 1′-OH MDZ and 4-OH MDZ (ref. 14). Reaction velocities and product ratios are presented as mean±SD. Statistical comparisons of mean data for different genotypes were performed by using a 2-sided, unpaired t test with unequal variances

CYP3A5 [5] = target: T1, CYP3A5; conditions: pH 7.4
Description: as §1

CYP4503A5 = CYP4503A5 (Homo sapiens, UniProt P20815); conditions: cited from earlier work
Chain of CYP4503A5 (P20815 whole entry): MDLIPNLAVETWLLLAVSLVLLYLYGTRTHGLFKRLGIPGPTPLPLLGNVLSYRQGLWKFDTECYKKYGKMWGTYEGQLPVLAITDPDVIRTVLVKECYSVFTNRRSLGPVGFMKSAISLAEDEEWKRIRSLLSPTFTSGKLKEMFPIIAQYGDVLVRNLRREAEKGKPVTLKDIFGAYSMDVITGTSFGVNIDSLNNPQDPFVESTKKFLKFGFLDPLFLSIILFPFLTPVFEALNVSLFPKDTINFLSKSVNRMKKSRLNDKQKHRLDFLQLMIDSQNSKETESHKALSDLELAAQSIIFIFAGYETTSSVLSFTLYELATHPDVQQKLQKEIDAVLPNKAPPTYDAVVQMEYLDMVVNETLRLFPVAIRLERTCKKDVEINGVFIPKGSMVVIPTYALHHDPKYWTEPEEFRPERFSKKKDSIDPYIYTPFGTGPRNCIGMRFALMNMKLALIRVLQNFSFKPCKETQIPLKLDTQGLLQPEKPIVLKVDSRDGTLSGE

CYP4503A enzymes = conditions: result in words (Wandel et al.); cited from earlier work
[6] = result in words (Wrighton et al.; Gillam et al.)

T2 sequence (P08684 whole entry): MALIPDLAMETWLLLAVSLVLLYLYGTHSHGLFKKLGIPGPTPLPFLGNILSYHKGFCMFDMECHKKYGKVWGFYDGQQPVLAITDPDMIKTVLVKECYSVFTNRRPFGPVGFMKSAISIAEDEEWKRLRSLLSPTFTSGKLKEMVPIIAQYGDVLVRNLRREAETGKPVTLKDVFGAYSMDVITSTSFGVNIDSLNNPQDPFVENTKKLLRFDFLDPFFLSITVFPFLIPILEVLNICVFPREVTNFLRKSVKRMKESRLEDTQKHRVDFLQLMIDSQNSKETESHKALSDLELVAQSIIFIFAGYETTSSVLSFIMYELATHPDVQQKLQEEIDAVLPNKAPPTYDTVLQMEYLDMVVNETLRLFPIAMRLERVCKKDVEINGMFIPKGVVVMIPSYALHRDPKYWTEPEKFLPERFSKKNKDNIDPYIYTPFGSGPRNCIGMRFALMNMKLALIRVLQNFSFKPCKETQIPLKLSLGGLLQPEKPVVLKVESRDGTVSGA
T1 sequence (P20815 whole entry): as the sequence (P20815 whole entry) above

## C#C[C@]1(O)CC[C@H]2[C@@H]3CCc4cc(O)ccc4[C@H]3CC[C@@]21C [17α-ethinyl-estradiol]
CYP3A5 [1]; [6]
  CYP3A5 catalytic activity towards substrate: No CYP3A5 catalytic activity

## C[C@]12CCC(=O)CC1CC[C@@H]1[C@@H]2CC[C@]2(C)C(=O)CC[C@@H]12 (some centres unmarked) [Androstanedione]
CYP3A4 [2]
  CYP isoforms expressed in cells 3A4: +++
CYP3A5 [3]
  CYP isoforms expressed in cells 3A5: ++
CYP3A7
  CYP isoforms expressed in cells 3A7: ++

## NC(=O)N1c2ccccc2C=Cc2ccccc21 [Carbamazepine]
CYP3A4 [2]
  CYP isoforms expressed in cells 3A4: +++
CYP3A5 [3]
  CYP isoforms expressed in cells 3A5: ++
CYP3A7
  CYP isoforms expressed in cells 3A7: +
CYP3A; adult, carbamazepine metabolism, result in words
  Catalytic activity in human liver microsomes adult: Present
CYP3A; fetus, CBZ-E formation (?), result in words
  Catalytic activity in human liver microsomes fetus: CBZ-E

## C[C@]12CCC(=O)C=C1CC[C@@H]1[C@@H]2[C@@H](O)C[C@@]2(C)[C@H]1CC[C@]2(O)C(=O)CO [Cortisol]
CYP3A4 [2]
  CYP isoforms expressed in cells 3A4: +++
CYP3A5 [3]
  CYP isoforms expressed in cells 3A5: ++
CYP3A7
  CYP isoforms expressed in cells 3A7: −

## COc1ccc2c(c1)[C@]13CCCC[C@@H]1[C@H](C2)N(C)CC3 [Dextromethorphan]
CYP3A
  Catalytic activity in human liver microsomes adult (%): 100%
  Catalytic activity in human liver microsomes fetus (%): 30%

## CN1C(=O)CN=C(c2ccccc2)c2cc(Cl)ccc21 [Diazepam]
CYP3A
  Catalytic activity in human liver microsomes Child (%): 140 (3-12 mo) %
  Catalytic activity in human liver microsomes adult (%): 100%
  Catalytic activity in human liver microsomes fetus (%): <5%

## CCOc1ccc2c3c1O[C@H]1[C@@H](O)C=C[C@H]4[C@@H](C2)N(C)CC[C@@]341 [Ethylmorphine]
CYP3A4 [2]
  CYP isoforms expressed in cells 3A4: +
CYP3A5 [3]
  CYP isoforms expressed in cells 3A5: ++
CYP3A; adult, relative to adult rate = 100%
  Catalytic activity in human liver microsomes adult (%): 100%
CYP3A; fetus, relative to adult rate = 100%
  Catalytic activity in human liver microsomes fetus (%): 100%
CYP3A5 [1]; [6]
  CYP3A5 catalytic activity towards substrate: considerable catalytic activity

## Cc1ncc2n1-c1ccc(Cl)cc1C(c1ccccc1F)=NC2 [Midazolam]
CYP3A4 [4]
  ratio of 1′-OH MDZ to 4-OH MDZ: 5.5
CYP3A5 [5]
  ratio of 1′-OH MDZ to 4-OH MDZ: 16.1
CYP3A5 [3]
  CYP isoforms expressed in cells 3A5: +++
CYP3A5 [1]
  formation rate of 1-hydroxy-midazolam for CYP3A5 versus CYP3A4: considerably higher
  rate of formation of 4-hydroxy-midazolam with CYP3A4 and CYP3A5: similar
CYP4503A5
  alpha- to 4-hydroxylation of midazolam, CYP4503A5 versus CYP4503A3 or CYP4503A4: far greater
  increase of midazolam metabolism with CYP4503A5 expression: 2.7

## CC(=O)[C@H]1CC[C@H]2[C@@H]3CCC4=CC(=O)CC[C@]4(C)[C@H]3CC[C@]12C [Progesterone]
CYP3A4 [2]
  CYP isoforms expressed in cells 3A4: +++
CYP3A5 [3]; 6β-hydroxylation
  CYP isoforms expressed in cells 3A5: ++

## C[C@]12CC[C@H]3[C@@H](CCC4=CC(=O)CC[C@@]43C)[C@@H]1CC[C@@H]2O [Testosterone]
CYP3A4 [2]
  CYP isoforms expressed in cells 3A4: +++
CYP3A5 [3]
  CYP isoforms expressed in cells 3A5: ++
CYP3A
  Catalytic activity in human liver microsomes newborn (%): 30-40%

## NS(=O)(=O)Cc1noc2ccccc12 [Zonisamide]
CYP3A4 [2]
  CYP isoforms expressed in cells 3A4: +++
CYP3A5 [3]
  CYP isoforms expressed in cells 3A5: +
CYP3A7
  CYP isoforms expressed in cells 3A7: ++

## CCOC(=O)C1=C(C)NC(C)=C(C(=O)OC)C1c1cccc([N+](=O)[O-])c1 (centres unmarked) [nitrendipine]
CYP4503A enzymes
  effect on liver microsomal hydroxylation of midazolam: inhibits

## aflatoxin B1
CYP3A5 [1]
  8,9-epoxidation step (activation step) by CYP3A5: efficiently catalyzes
  rate of 3α-hydroxylation (inactivation step) by CYP3A5 relative to CYP3A4: approximately 1%

## aflatoxins
CYP3A5 [1]
  CYP3A5 catalytic activity towards substrate: No CYP3A5 catalytic activity
